Laboratory results: US20250295668A1, “METHODS FOR INDUCING COLANIC ACID BIOSYNTHESIS” (priority 2024, published 2025)

Tests used:
PBP1a = PBP1a (Escherichia coli, UniProt P02918); conditions: E. coli, literature; cited from earlier work
cps promoter = assay: cps G-R reporter bacteria imaging in vitro (GFP-to-RFP ratio); type: cell-based, E. coli; conditions: low-dose cephaloridine, cultured at 37° C.
Description: For high-resolution imaging, rph1 ilvG rfb-50 attL (Psyn135::mcherry <FRT>) attHKPR218 (cps G-R reporter strain), a genetically modified strain derived from MG1655 (genotype rph1 ilvG rfb-50), was generated. pPR218, integrated at the HK site, encodes Pcps::sfGFP and chloramphenicol resistance.
In vitro imaging: The cps G-R reporter strain was cultured in M9 minimal medium. Bacteria culture was harvested at an OD600 of 0.6. For bacteria imaging, 1 μL of the culture was loaded onto a 1% low-melt agarose pad made with M9 medium [PMID: 23680982].
MG1655, a human-derived commensal K12 strain, was treated with a low dose of cephaloridine at 37° C., which induced colanic acid production (FIG. 3A). […] To determine whether cephaloridine activates cps expression in a commensal bacterium in a mammalian host, MG1655 was engineered as shown in FIG. 3C to express GFP under the control of the cps promoter and to constitutively express RFP under a synthetic promoter syn135, resulting in the cps G-R reporter strain. […] The luminal content of mice ileum was harvested after 3 hours of cephaloridine administration and were imaged for fluorescence. […]

[1] = Age-related metabolic dysfunction in mice, cephaloridine in drinking water; type: in vivo; conditions: oral 2 μg/mL
Description: Methods: Co-housed 12-month-old […] mice were given MG1655 E. coli at 1×10^8 CFU/mL through distilled drinking water (100 mL) for 24 hours to maintain E. coli occupancy in the mouse gut microbiota. Subsequently, mice received 2 μg/mL cephaloridine through drinking water (100 mL) for 60 hours. […] This entire procedure was then repeated. Cephaloridine dosages were calculated as follows. Briefly, a typical mouse used in this study consumed 5-10 ml of water per day and weighed between 30-40 g. Using the 2 μg/mL concentration, a lower bound of 0.25 mg/kg (0.002 mg/mL×5 mL=0.04 kg) and a higher bound of 0.67 mg/kg (0.002 mg/mL×10 mL=0.03 kg) were identified.

E. coli deletion mutants = assay: Colanic acid measurement in E. coli deletion mutants; type: cell-based; conditions: low-dose cephaloridine
Description: For colanic acid quantification, E. coli Keio mutants and the parental strain BW25113 were cultured overnight at 37° C. in M9 minimum medium [PMID: 28436966]. Bacteria were then removed by centrifugation and filtered for colanic acid measurement.
The desired bacterial strain was first inoculated and cultured in M9 minimum medium overnight at 37° C. to obtain the seeding culture. The OD 600 was measured, and the seeding bacteria were diluted to OD600=0.02 in M9 minimum medium for another 16 hours. After the incubation, bacterial cultures were collected in 50 mL tubes, spun down at 4,000 g at 4° C. for 30 min, filtered, and 25 mL of supernatant was collected per 50 ml conical tube. Ice-cold 100% ethanol (EtOH) was added to make a final 50% EtOH solution for precipitation, and the mixture was kept at 4° C. overnight. Once precipitation occurred, the liquid was carefully removed after centrifugation at 4,000 g at 4° C. for 50 min. The pellet was washed once with cold 80% EtOH and then air-dried in a hood. The pellet from every 50 mL culture was resuspended in 500 μL distilled H2O. The solution was sonicated for 60 minutes at 37° C., followed by centrifugation at 4000 g at 4° C. for 10 minutes. A 200 μL sample was mixed with 30 μL hydrochloric acid (320331-500 mL, Sigma-Aldrich) and boiled for 2 hours. Subsequently, 60 μL 5M NaOH and 150 μL NaHCO3/NaOH buffer were added to reach a pH of 6-8, calibrated by 1M HCl or NaOH solutions. The fucose quantification assay was then carried out using a K-FUCOSE kit (Megazyme) according to the manufacturer's protocol.
The molecular mechanism behind the induction of colanic acid by low-dose cephaloridine was investigated. It was suspected that regulation of the cps operon was centered on the well-known RCS two-component system. Canonically, the RcsC sensor histidine kinase situated in the inner membrane autophosphorylates in response to environmental cues, then the RcsD phosphotransferase transmits the phosphoryl group to the cytosolic response regulator RcsB, which functions as a transcription factor to up-regulate the cps operon, with RcsA interacting with RcsB to enhance its binding with the promoter, thereby stimulating transcriptional activation (FIG. 4A). To assess the necessity of the RCS system in colanic acid induction by low-dose cephaloridine, the E. coli deletion mutants of rcsA, rcsB, rcsC, and rcsD were treated with cephaloridine and colanic acid production was measured in their respective culture mediums.
Considering β-lactam antibiotics show preferential affinities to various penicillin-binding proteins (PBPs) [PMID: 25733506] [PMID: 1103132], the role of these inner membrane proteins in colanic acid induction upon low-dose cephaloridine treatment was determined. […] (FIG. 5A).
To investigate potential mediation of colanic acid induction by these kinases, E. coli deletion mutants of btsS, glrK, and zraS were treated with low-dose cephaloridine and colanic acid levels in their respective culture mediums were measured. Due to slow growth in the M9 culture medium, the rstB deletion mutant could not be evaluated.

[2] = system: cps operon in commensal E. coli; assay: cps G-R reporter bacteria from mouse ileum, in vivo imaging (GFP-to-RFP ratio); set-up: species or system C57BL6 mice; conditions: for increase in GFP-to-RFP ratio: oral gavage plus drinking water, 3 hours, ileum
Description: In vivo imaging: Co-housed female C57BL6 mice received cps G-R reporter E. coli at 1×10^8 CFU per 100 mL through distilled drinking water. The bacteria-containing water was prepared and replaced daily for three days continuously. […] Luminal content from the ileum was collected and processed for imaging bacteria from in vivo samples immediately after euthanasia as previously described [PMID: 34428120]. In brief, the ileum sections were collected and then finely minced by a pair of iris scissors in 2 mL 1×PBS. Samples were then vortexed for 1 minute and filtered with a sterile cell strainer (40 μm) to remove the tissue debris. The microbiota was washed 3 times with 1.5 mL PBS by centrifugation (15,000×g, 3 min) and then resuspended in 0.1 mL PBS for imaging.
The cps G-R reporter strain was introduced to wild-type C57B6 mice through drinking water, followed by cephaloridine administration through a single-dose oral gavage and cephaloridine-containing water for 3 hours, which allowed for sufficient intestinal transit time [PMID: 23915679] and E. coli turnover time [PMID: 26392213] for optimal dosing (FIG. 3E). […] The luminal content of mice ileum was harvested after 3 hours of cephaloridine administration and were imaged for fluorescence.

PBP1a, sequence (P02918 whole entry): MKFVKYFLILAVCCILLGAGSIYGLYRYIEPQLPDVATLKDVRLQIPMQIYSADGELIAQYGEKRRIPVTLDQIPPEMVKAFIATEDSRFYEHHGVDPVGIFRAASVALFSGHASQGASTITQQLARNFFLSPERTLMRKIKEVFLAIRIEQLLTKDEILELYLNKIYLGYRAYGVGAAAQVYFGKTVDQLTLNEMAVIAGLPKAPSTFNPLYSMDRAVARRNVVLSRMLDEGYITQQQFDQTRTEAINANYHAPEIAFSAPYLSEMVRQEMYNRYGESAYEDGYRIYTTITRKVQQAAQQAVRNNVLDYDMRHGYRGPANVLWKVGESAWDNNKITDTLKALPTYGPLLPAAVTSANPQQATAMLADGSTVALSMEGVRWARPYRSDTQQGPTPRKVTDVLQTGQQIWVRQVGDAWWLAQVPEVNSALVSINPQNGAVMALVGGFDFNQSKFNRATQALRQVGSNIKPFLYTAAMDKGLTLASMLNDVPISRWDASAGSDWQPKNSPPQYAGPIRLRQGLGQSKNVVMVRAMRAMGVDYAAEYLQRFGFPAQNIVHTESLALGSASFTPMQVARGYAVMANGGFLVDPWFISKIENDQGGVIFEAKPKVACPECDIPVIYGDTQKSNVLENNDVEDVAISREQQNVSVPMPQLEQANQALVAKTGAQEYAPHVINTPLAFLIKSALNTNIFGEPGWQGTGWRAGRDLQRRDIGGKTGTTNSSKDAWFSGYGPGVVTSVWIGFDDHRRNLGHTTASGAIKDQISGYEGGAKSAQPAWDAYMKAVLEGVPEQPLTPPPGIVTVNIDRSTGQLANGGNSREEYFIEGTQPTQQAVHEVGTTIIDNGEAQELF

In the case of `O=C(Cc1cccs1)N[C@@H]1C(=O)N2C(C(=O)[O-])=C(C[n+]3ccccc3)CS[C@H]12` [cephaloridine], the “binding to PBP1a” value (PBP1a) is listed as “primarily binds to PBP1a”, the “increase in GFP-to-RFP intensity ratio” value (cps promoter) is listed as 20% and the “increase in plasma insulin between 12 and 18 months of age vs controls” value ([1]; female mice) is listed as “lower”. The “age-related increase in LDL:HDL ratio” value ([1]; male mice) was “suppressed”, the “plasma HDL” value ([1]; male mice) was “not affected” and the “plasma LDL between 12 and 18 months of age” value ([1]; male mice) was “remain nearly unchanged”. The “amount of colanic acid vs treated wild-type strain” value (E. coli deletion mutants; DacB deletion mutant (PBP4)) was “even greater amount of colanic acid than the wild-type strain”, the “induction of colanic acid” value (E. coli deletion mutants; DacB deletion mutant (PBP4)) was “did induce colanic acid production” and the “induction of colanic acid” value (E. coli deletion mutants; mrcA deletion mutant (PBP1a)) was “failed to induce colanic acid”. The “induction of colanic acid” value (E. coli deletion mutants; rcsA deletion mutant) was “completely abolished the induction of colanic acid”, the “induction of colanic acid” value (E. coli deletion mutants; rcsB deletion mutant) was “completely abolished the induction of colanic acid” and the “induction of colanic acid” value (E. coli deletion mutants; rcsC deletion mutant) was “no impact on the induction of colanic acid”. The “induction of colanic acid” value (E. coli deletion mutants; rcsD deletion mutant) was “no impact on the induction of colanic acid”, the “induction of colanic acid” value (E. coli deletion mutants; zraS deletion mutant) was “suppressed the induction of colanic acid” and the “cps operon induction in the mouse intestine” value ([2]; 4 μg/mL dose) was “induced the cps operon”. The “increase in GFP-to-RFP ratio” value ([2]; 4 μg/mL) was 13%, the “cps operon induction in the mouse intestine” value ([2]; 8 μg/mL dose) was “failed to exert this effect” and the “increase in GFP-to-RFP ratio” value ([2]; 8 μg/mL) was “no such increase”.
